# According to patent publication US20080146559A1, “4,5,6,7-Tetrahydro-Thieno [2,3-C] Pyridine Derivatives” (priority 2006, published 2008):
# Biological target: T1, human H3R (Homo sapiens, UniProt Q9Y5N1)
# T1 construct: expressed in transfected cells; host or cells: CHO cells (membranes)
# Assay: Binding assay with 3H-(R)α-methylhistamine (competition binding)
# Conditions: membrane of the human H3R-CHO cell line, 3H(R)α-methylhistamine 1 nM, Ki calculated from IC50 by Cheng-Prusoff
# Experimental: Binding assay with ^3H—(R)α-methylhistamine
# Saturation binding experiments were performed using HR3-CHO membranes prepared as described in Takahashi, K, Tokita, S., Kotani, H. (2003) J. Pharmacol. Exp. Therapeutics 307, 213-218.
# An appropriate amount of membrane (60 to 80 μg protein/well) was incubated with increasing concentrations of ^3H(R)α-Methylhistamine di-hydrochloride (0.10 to 10 nM). Non specific binding was determined using a 200 fold excess of cold (R)α-Methylhistamine dihydrobromide (500 nM final concentration). The incubation was carried out at room temperature (in deep-well plates shaking for three hours). The final volume in each well was 250 μl. The incubation was followed by rapid filtration on GF/B filters (pre-soaked with 100 μl of 0.5% PEI in Tris 50 mM shaking at 200 rpm for two hours). The filtration was made using a cell-harvester and the filter plates were then washed five times with ice cold washing buffer containing 0.5 M NaCl. After harvesting, the plates were dried at 55° C. for 60 min, then we added scintillation fluid (Microscint 40, 40 microl in each well) and the amount of radioactivity on the filter was determined in Packard top-counter after shaking the plates for two hours at 200 rpm at room temperature.
# Binding Buffer: 50 mM Tris-HCl pH 7.4 and 5 mM MgCl2×6H2O pH 7.4. Washing Buffer: 50 mM Tris-HCl pH 7.4 and 5 mM MgCl2×6H2O and 0.5 M NaCl pH 7.4. Indirect measurement of affinity of H3R inverse agonists: twelve increasing concentrations (ranging from 10 μM to 0.3 nM) of the selected compounds were always tested in competition binding experiments using membrane of the human H3R—CHO cell line. An appropriate amount of protein, e.g. approximately 500 cpm binding of RAMH at Kd, were incubated for 1 hour at room temperature in 250 μl final volume in 96-well plates in presence of ^3H(R)α-methylhistamine (1 nM final concentration=Kd). Non-specific binding was determined using a 200 fold excess of cold (R)α-methylhistamine dihydrobromide.
# All compounds were tested at a single concentration in duplicate. […] The concentration at which 50% inhibition of the radioligand ^3H(R)α-methylhistamine is obtained (the IC50) is determined from the linear regression of a plot of the logarithm of the concentration versus percent inhibition measured for the different concentrations. Ki's were calculated from IC50 based on Cheng-Prusoff equation (Cheng, Y, Prusoff, W H (1973) Biochem Pharmacol 22, 3099-3108): Ki=IC50/[1+D/Kd] wherein D is the concentration of the radioligand and Kd is the binding constant for the radioligand binding to the receptor under the conditions used in the competition experiment.
# T1 sequence (Q9Y5N1 whole entry): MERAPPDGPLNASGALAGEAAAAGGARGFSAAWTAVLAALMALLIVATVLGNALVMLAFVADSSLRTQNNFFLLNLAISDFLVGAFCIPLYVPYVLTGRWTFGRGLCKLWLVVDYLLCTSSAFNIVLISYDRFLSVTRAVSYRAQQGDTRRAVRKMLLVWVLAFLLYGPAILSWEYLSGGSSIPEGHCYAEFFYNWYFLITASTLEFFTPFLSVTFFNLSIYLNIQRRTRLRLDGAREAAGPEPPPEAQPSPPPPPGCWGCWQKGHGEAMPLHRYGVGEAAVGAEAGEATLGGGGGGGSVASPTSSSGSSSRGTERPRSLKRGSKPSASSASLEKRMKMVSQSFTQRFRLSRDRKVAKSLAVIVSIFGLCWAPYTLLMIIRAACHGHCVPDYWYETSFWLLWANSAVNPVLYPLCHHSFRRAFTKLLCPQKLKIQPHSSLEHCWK
row,Structure (SMILES),Ki [nM]
1,"O=C(c1cccc(F)c1)N1CCc2cc(OCCCN3CCCCC3)sc2C1 [Example 10, (3-fluoro-phenyl)-[2-(3-piperidin-1-yl-propoxy)-4,7-dihydro-5H-thieno[2,3-c]pyridin-6-yl]-methanone]",31.3
2,"O=S(=O)(c1ccccc1)N1CCc2cc(OCCCN3CCCC3)sc2C1 [Example 32, 6-benzenesulfonyl-2-(3-pyrrolidin-1-yl-propoxy)-4,5,6,7-tetrahydro-thieno[2,3-c]pyridine]",33.6
3,"CC(C)CC(=O)N1CCc2cc(OC3CCN(C(C)C)CC3)sc2C1 [Example 64, 1-[2-(1-isopropyl-piperidin-4-yloxy)-4,7-dihydro-5H-thieno[2,3-c]pyridin-6-yl]-3-methyl-butan-1-one]",13.1
4,"Cc1ccc(S(=O)(=O)N2CCc3cc(OC4CCN(C(C)C)C4)sc3C2)cc1 (stereo not drawn) [Example 94, 2-(1-isopropyl-pyrrolidin-3-yloxy)-6-(toluene-4-sulfonyl)-4,5,6,7-tetrahydro-thieno[2,3-c]pyridine]",64.3

# Continued by falling Ki, values first:
row,Ki [nM],Structure (SMILES)
1,41.7,"CC(C)CN1CCC(Oc2cc3c(s2)CN(C(=O)CC(C)(C)C)CC3)CC1 [Example 44, 1-[2-(1-isobutyl-piperidin-4-yloxy)-4,7-dihydro-5H-thieno[2,3-c]pyridin-6-yl]-3,3-dimethyl-butan-1-one]"
2,40.9,"CC(C)(C)CC(=O)N1CCc2cc(OCCCN3CCCC3)sc2C1 [Example 20, 3,3-dimethyl-1-[2-(3-pyrrolidin-1-yl-propoxy)-4,7-dihydro-5H-thieno[2,3-c]pyridin-6-yl]-butan-1-one]"
